Target: T1, rat ENaC (Rattus norvegicus, UniProt P37089+P37090+P37091)
T1 construct: from tissue; host or cells: kidney distal tubule of anesthetized female Wistar rats, in vivo
T1 sequence (P37089 1-698): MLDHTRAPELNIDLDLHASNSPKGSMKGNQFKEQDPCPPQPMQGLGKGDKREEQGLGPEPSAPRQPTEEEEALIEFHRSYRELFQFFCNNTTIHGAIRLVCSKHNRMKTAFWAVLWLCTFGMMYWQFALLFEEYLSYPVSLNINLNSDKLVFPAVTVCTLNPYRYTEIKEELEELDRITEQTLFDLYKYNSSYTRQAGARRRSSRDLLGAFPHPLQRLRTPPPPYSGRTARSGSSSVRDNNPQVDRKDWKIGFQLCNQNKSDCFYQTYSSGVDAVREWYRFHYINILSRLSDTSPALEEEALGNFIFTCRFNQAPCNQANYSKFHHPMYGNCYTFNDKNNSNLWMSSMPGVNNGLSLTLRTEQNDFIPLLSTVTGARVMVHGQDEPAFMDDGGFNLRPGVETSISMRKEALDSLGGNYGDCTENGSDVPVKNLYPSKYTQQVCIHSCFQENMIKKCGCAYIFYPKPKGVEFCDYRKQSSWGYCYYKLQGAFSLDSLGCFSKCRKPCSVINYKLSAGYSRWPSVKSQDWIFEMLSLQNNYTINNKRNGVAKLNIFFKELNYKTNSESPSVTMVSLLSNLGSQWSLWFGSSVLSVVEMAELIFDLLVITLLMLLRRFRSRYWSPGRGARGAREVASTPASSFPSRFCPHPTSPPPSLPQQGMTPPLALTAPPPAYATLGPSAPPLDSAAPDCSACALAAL
T1 sequence (P37090 1-638): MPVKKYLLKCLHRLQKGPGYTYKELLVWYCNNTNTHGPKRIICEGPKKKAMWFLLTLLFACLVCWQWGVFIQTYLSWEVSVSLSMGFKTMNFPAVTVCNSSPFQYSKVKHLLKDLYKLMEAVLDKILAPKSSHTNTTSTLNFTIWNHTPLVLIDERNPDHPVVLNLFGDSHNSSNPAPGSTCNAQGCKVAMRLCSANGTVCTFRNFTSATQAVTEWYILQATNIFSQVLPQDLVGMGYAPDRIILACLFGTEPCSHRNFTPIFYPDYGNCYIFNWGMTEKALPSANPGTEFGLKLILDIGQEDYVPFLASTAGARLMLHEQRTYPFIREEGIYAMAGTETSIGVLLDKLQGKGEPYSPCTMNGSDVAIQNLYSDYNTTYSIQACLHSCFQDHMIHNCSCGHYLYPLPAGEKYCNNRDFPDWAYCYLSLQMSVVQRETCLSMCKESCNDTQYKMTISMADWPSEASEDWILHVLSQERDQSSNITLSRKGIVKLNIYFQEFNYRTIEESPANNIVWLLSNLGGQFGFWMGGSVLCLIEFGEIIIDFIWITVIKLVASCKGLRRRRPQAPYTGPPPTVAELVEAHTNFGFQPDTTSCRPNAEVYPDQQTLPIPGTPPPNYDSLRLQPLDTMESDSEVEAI
T1 sequence (P37091 1-650): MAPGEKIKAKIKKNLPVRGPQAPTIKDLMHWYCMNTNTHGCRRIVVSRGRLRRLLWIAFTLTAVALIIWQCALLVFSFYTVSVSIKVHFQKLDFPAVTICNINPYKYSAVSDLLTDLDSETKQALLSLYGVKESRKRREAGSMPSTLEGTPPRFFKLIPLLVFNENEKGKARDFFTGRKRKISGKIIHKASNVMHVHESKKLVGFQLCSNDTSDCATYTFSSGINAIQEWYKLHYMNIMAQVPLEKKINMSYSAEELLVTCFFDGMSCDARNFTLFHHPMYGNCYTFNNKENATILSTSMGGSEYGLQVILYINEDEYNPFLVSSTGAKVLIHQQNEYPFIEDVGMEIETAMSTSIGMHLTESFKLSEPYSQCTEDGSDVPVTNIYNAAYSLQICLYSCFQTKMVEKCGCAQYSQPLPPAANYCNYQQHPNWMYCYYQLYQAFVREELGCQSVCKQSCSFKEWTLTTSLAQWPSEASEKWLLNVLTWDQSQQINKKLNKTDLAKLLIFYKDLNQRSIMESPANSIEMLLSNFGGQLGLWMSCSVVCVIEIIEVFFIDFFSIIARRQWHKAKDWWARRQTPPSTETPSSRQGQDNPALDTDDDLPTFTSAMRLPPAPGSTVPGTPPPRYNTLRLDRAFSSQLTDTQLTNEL
Test: Rat potency from renal electrolyte excretion during i.v. infusion
Format: in vivo
Settings: read-out: potency for rat ENaC (EC50, inhibiting 50% of the potassium excretion), normal rats, free concentrations, estimated
Description: The potency of AZD5634 was also assessed in vivo in rats. Female Wistar rats were anesthetized by means of spontaneously breathing isoflurane (induction concentration of 5% followed by 2%). A catheter was positioned in the carotid artery for blood sampling and mean arterial blood pressure and heart rate were measured. […] The urinary bladder was catheterized for urine collection. The rats were left to stabilize for at least 30 min after surgery during constant basal infusions before any test compound or vehicle infusion was initiated. Urine was collected over 20-min periods; two at baseline (i.e., preexposure), followed by three 30 min exposures of increasing doses of test compound or vehicle, where urine was collected over the last 20 min for each dose. Additional urine was collected during the washout period (0–20, 20–40, and 40–60 min after cessation of the infusion protocol). Blood samples were collected 5 min before the end of each urine collection period for electrolyte evaluation (iSTAT analyzer, Abbott Laboratories Inc) and plasma concentration of drug (LC-MSMS). Urine production, electrolytes (ABL700, Radiometer Medical ApS, Brønshøj, Denmark, for urine), as well as concentration of test compound (LC-MSMS) were evaluated.
Rat electrolyte data were analyzed by means of repeated-measures ANCOVA (SAS v.9).

- EC50: 8.6 nM
Substance: AZD5634

Source: article PMC9602792, “Preclinical evaluation of the epithelial sodium channel inhibitor AZD5634 and implications on human translation” (American Journal of Physiology - Lung Cellular and …, 2022)
